Tested on: sclerostin
Assay: Irisin injection in mice: sclerostin mRNA in osteocyte-enriched bones and plasma sclerostin protein (ELISA)
Type: in vivo
Conditions: co-injection of 1 mg/kg inhibitor with irisin
Experimental: 8 weeks old mice were injected daily with indicated dose of irisin for 6 days. […] were collected and treated with collagenase to yield osteocyte-enriched bones. Sclerostin mRNA level from osteocyte-enriched tibia was analyzed by qPCR (FIG. 7A). Cyclophilin was used as a house-keeping gene. Plasma was collected to analyze the circulating sclerostin protein level by ELISA assay (FIG. 7B). Data are represented as mean±SEM. For FIG. 7A and FIG. 7B, n=5 animals/group. * indicates p<0.05, and *** indicates p<0.001.
Certain materials and methods were used to generate the results described herein. For example, the data shown in FIG. 1A resulted from MLO-Y4 (an osteocyte-like cell line) cells treated with the indicated concentration of irisin and hydrogen peroxide for 4 hours. Cells were stained with Hoechst 33342 (ThermoFisher Scientific, catalog number H3570) and Eth-D1 (ThermoFisher Scientific, catalog number E1169) and analyzed to determine the percentage of cell death using ImageJ. […] Co-precipitated irisin was analyzed by immunoblot analysis against flag tag (Sigma Aldrich, catalog number A8592). The data shown in FIGS. 5A and 5B were generated from MLO-Y4 cells treated and analyzed as in the experiments used to generate the data shown in FIG. 2D, except that pre-treatment of 100 nM RGDS (FIG. 5A) or echistatin (R & D Systems Inc., catalog number 3202/100U) (FIG. 5B) for 10 minutes was performed before irisin treatment. […] RNAs were extracted from the cells and the sclerostin mRNA level was analyzed by qPCR (FIG. 6A) or treated and analyzed as in (FIG. 6A), except that pre-treatment of 10 μM RGDS, RGDyK (Selleck, catalog number S7844), or echistatin was performed for 10 minutes before irisin treatment. […] Sclerostin mRNA level was analyzed by qPCR (FIG. 7A). […] Epididymal fats were collected, RNAs were extracted from the tissues, and mRNA levels of the indicated genes were analyzed by qPCR. […]

Compound: N=C(N)NCCC[C@@H]1NC(=O)[C@H](CCCCN)NC(=O)[C@@H](Cc2ccc(O)cc2)NC(=O)[C@H](CC(=O)O)NC(=O)CNC1=O [cyclo RGDyK]
- effect on irisin-induced gene expression of sclerostin in osteocyte-enriched bones: prevented
- effect on irisin-induced sclerostin protein level in plasma: prevented

Source: patent US20210063414A1, “METHODS FOR PREVENTING AND/OR TREATING BONE LOSS CONDITIONS BY MODULATING IRISIN” (Dana-Farber Cancer Institute, Inc., priority 2018, published 2021)
